Experimental data published in BindingDB's records for doi:10.1016/s0960-894x(01)00497-8 (Universidad De Sevilla, 2001).
Where a name gives a salt, the structure may show the parent alone.

Columns and labels:
[1] = Inhibitory concentration against alpha-L-Fucosidase of human placenta
[2] = Inhibitory concentration against alpha-L-Fucosidase of bovine epididymis
[3] = Inhibitory activity against alpha-L-Fucosidase of bovine epididymis expressed as Ki
[4] = Inhibitory activity against alpha-L-fucosidase of bovine epididymis expressed as Ki
[5] = In vitro inhibition of alpha-L-fucosidase isolated from bovine kidney.
[6] = target: alpha-L-fucosidase (Bacillus sp. K40T); assay: Inhibitory activity against alpha-L-fucosidase of bacillus species (K40T) expressed as Ki

Row | Compound | Ki [1] [µM] | other results
1 | C[C@@H]1N[C@@H](CO)[C@H](O)[C@@H]1O | 1.4 | –
2 | C[C@H]1N[C@H](CO)[C@H](O)[C@@H]1O | 9 | –
3 | CC1NCC(O)C1O (stereo unspecified) [2-Methyl-pyrrolidine-3,4-diol] | 2 | –
4 | CC1NC(S(=O)(=O)O)C(O)C1O (stereo unspecified) [3,4-Dihydroxy-5-methyl-pyrrolidine-2-sulfonic acid] | 0.01 | –
5 | COC(=O)c1cc(C2NCC(O)C2O)oc1C (stereo unspecified) [5-(3,4-Dihydroxy-pyrrolidin-2-yl)-2-methyl-furan-3-carboxylic acid methyl ester] | – | IC50 [2]: 100 µM; Ki [3]: 6.5 µM
6 | CC1CN[C@@H](N)[C@H](O)C1O (stereo partly drawn) [(2R,3S)-2-Amino-5-methyl-piperidine-3,4-diol] | 0.016 | –
7 | CC1N=C(NN)[C@@H](O)[C@H](O)C1O (stereo partly drawn) [(4R,5R)-6-Hydrazino-2-methyl-2,3,4,5-tetrahydro-pyridine-3,4,5-triol] | 0.82 | –
8 | CCCCNC1N[C@@H](CO)C(O)[C@@H](O)[C@@H](CO)N1 (stereo partly drawn) [(6S,7R)-2-Butylamino-4,7-bis-hydroxymethyl-[1,3]diazepane-5,6-diol; trifluoroacetate] | 2.8 | –
9 | OC1CN(Cc2ccccc2)C[C@@H](O)C(O)C1O (stereo partly drawn) [(R)-1-Benzyl-azepane-3,4,5,6-tetraol] | – | Ki [4]: 23.4 µM
10 | C=CCOC1OC(CO)C(O)C(O)[C@H]1OC1SC(C)C(O)[C@@H](O)C1O (stereo partly drawn) [(R)-2-((R)-2-Allyloxy-4,5-dihydroxy-6-hydroxymethyl-tetrahydro-pyran-3-yloxy)-6-methyl-tetrahydro-thiopyran-3,4,5-triol] | – | Ki [5]: 30 µM; Ki [6]: 0.21 µM
11 | CC1SC(Sc2ccc([N+](=O)[O-])cc2)C(O)[C@H](O)C1O (stereo partly drawn) [(R)-2-Methyl-6-(4-nitro-phenylsulfanyl)-tetrahydro-thiopyran-3,4,5-triol] | 3.3 | –
12 | CC1C(N)C(O)[C@H](O)C1O (stereo partly drawn) [(R)-4-Amino-5-methyl-cyclopentane-1,2,3-triol] | 15 | –
13 | CC1C(NCc2ccccc2)C(O)[C@H](O)C1O (stereo partly drawn) [(R)-4-Benzylamino-5-methyl-cyclopentane-1,2,3-triol] | 0.68 | –
14 | CC(=O)NCC1NCC(O)[C@@H](O)[C@@H]1O (stereo partly drawn) [N-((3R,4R)-3,4,5-Trihydroxy-piperidin-2-ylmethyl)-acetamide] | 4 | –
